Data taken from patent publication US20160326558A1, “Process for Stimulating Hyaluronic Acid Production with Ascorbic Acid Derivatives and the Composition Thereof” (CORUM INC., priority 2012, published 2016).
Where “and” joins values, the source holds several entries; their conditions need not be identical. Equal entries are not always repeated.

Tested on: mouse fibroblast (3T3)
Experiment: Stimulating hyaluronic acid production in mouse fibroblast, R&D HA-ELISA (Examples 3 and 5)
Assay type: cell-based
Conditions: for Hyaluronic Acid Content Stimulated, Average / Hyaluronic Acid Content Stimulated, single entries: 72 h, vs negative control = 100%
Procedure: Complete medium is used in cell seeding stage. The confluent 3T3 cells are rinsed with sterile D-PBS, and trypsinize all cells and perform cell counting. Then, dilute the cell density to 4E+04/mL and seed 0.5 mL cell liquid (equals to 2E+04 cells) each well in 24 well plates. Incubate 3T3 cells at 37° C., 5% CO2 for about 24 hours. Starvation medium is used in this stage. The 24-hour-cultured 3T3 cells are rinsed with sterile D-PBS and discarded rinse buffer. Controls and testing materials in different concentrations are respectively added into the 3T3 cells in 24 well plates. Then, the 3T3 cells are incubated at 37° C., with 5% CO2 for about 72 hours. After incubating for about 72 hours, transfer some supernatant of cells treated with controls and testing materials into new containers. Centrifuge the supernatants at 2000 rpm for 5˜10 minutes. The hyaluronic acid content of the centrifuged supernatants are respectively determined by Hyaluronan Enzyme-Linked Immunosorbent Assay Kit, and calculated with the following Formula 1. [formula] In this example, we try another brand HA-ELISA kit (R&D; Cat No. DHYAL0) to figure out the reproducibility of the stimulatory effect. Excluding replacing the HA-ELISA kit, the materials and the procedures can be referred to the above Example 1. In this example, we try to figure out whether the stimulatory effect also can be found on ascorbic acid. Excluding replacing the HA-ELISA kit to another brand HA-ELISA kit (R&D; Cat No. DHYAL0) and replacing the testing material to ascorbic acid, the other materials and the procedures can be referred to the above Example 1.

CCOC1=C(O)C(=O)O[C@@H]1[C@@H](O)CO [3-O-ethyl-ascorbic acid]
Hyaluronic Acid Content Stimulated, Average (1.25 ppm): 143.0%
Hyaluronic Acid Content Stimulated, single entries (1.25 ppm): 100.0% and 156.8% and 172.0%
Hyaluronic Acid Content Stimulated, Average (2.5 ppm): 145.9%
Hyaluronic Acid Content Stimulated, single entries (2.5 ppm): 119.7% and 135.2% and 182.8%
Hyaluronic Acid Content Stimulated, Average (5 ppm): 137.1%
Hyaluronic Acid Content Stimulated, Average (7.5 ppm): 135.9%
Hyaluronic Acid Content Stimulated, single entries (7.5 ppm): 115.9% and 143.8% and 148.1%
Hyaluronic Acid Content Stimulated, Average (10 ppm, Table 3): 147.1%
Hyaluronic Acid Content Stimulated, single entries (10 ppm, Table 3): 101.0% and 158.1% and 182.2%
Hyaluronic Acid Content Stimulated, Average (100 ppm, Table 3): 171.2%
Hyaluronic Acid Content Stimulated, single entries (100 ppm, Table 3): 166.8% and 155.7% and 191.2%
Hyaluronic Acid Content Stimulated, Average (1000 ppm): 177.8%
Hyaluronic Acid Content Stimulated, Average (2500 ppm): 159.3%
Hyaluronic Acid Content Stimulated, single entries (2500 ppm): 148.7% and 176.3% and 152.8%
stimulated hyaluronic acid production, dose dependence (in words) (5000-5 ppm): dose-dependently
Hyaluronic Acid Content Stimulated, Average (5000 ppm): 184.2%
Hyaluronic Acid Content Stimulated, single entries (5000 ppm): 131.8% and 180.4%
Hyaluronic Acid Content Stimulated, Average (7500 ppm): 143.8%
Hyaluronic Acid Content Stimulated, single entries (7500 ppm): 119.9% and 130.8% and 180.7%
Hyaluronic Acid Content Stimulated, Average (10000 ppm): 109.0%
